Data on 14 molecules can be found in patent US20240246937A1 (MERCK SHARP & DOHME LLC, priority 2021, published 2024).

What is called EC50 is the concentration at which the effect is half-maximal.

Each structure is given as a SMILES string.

Sequence of recombinant IL4I1 (Q96RQ9 22-567): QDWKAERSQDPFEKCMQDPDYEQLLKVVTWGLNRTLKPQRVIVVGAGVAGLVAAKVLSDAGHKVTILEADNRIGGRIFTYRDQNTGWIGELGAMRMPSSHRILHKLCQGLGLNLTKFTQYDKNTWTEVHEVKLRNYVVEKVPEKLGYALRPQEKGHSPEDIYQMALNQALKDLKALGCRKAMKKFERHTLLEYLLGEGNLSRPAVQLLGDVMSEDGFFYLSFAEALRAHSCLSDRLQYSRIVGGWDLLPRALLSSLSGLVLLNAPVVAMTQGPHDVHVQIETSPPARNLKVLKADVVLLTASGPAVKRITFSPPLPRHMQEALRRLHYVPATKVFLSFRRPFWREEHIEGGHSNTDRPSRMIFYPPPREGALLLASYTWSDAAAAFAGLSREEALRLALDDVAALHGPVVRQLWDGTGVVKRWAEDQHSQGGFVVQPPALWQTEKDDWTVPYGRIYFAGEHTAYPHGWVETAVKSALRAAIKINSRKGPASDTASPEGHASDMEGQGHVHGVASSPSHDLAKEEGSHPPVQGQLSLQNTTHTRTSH

This test has as its target recombinant IL4I1 (Homo sapiens (Human), UniProt Q96RQ9). Briefly: IL4I1 Enzymatic Assay (Amplex Red/HRP coupled fluorescence detection of H2O2). It counts as biochemical. The following applies: 240 min; recombinant IL4I1, four-hour pre-incubation with compound. The method, boiled down:
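Ten-point, 1:3 compound titrations were fitted by four-parameter sigmoidal regression to give EC50. Resorufin fluorescence (544/590 nm) from Amplex Red/HRP-coupled H2O2 detection was read 120 min after adding 1 mM each aromatic amino acid to 1 nM IL4I1, following a 4 h compound pre-incubation in pH 7.0 Hepes buffer.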
As to `O=C1C(=O)N(C23CC(C2)C3)CCN1Cc1ccc(-n2ccnn2)nn1` [Example 402, 1-((6-(1H-1,2,3-triazol-1-yl)pyridazin-3-yl)methyl)-4-(bicyclo[1.1.1]pentan-1-yl)piperazine-2,3-dione], the EC50 was 36 nM.

Regarding `O=c1c(=O)n(C23CC(C2)C3)ccn1Cc1ccc(-n2nccn2)nn1` [Example 403, 1-((6-(2H-1,2,3-triazol-2-yl)pyridazin-3-yl)methyl)-4-(bicyclo[1.1.1]pentan-1-yl)-1,4-dihydropyrazine-2,3-dione], the EC50 was 17 nM.

Consider `O=c1c(=O)n(C23CC(C2)C3)ccn1Cc1ccc(-n2ccnn2)nn1` [Example 404, 1-((6-(1H-1,2,3-triazol-1-yl)pyridazin-3-yl)methyl)-4-(bicyclo[1.1.1]pentan-1-yl)-1,4-dihydropyrazine-2,3-dione], for which the EC50 stood at 10 nM.

Take `O=C1C(=O)N(C23CC(C2)C3)CCN1Cc1ncc(-n2nccn2)cc1F` [Example 405, 1-(bicyclo[1.1.1]pentan-1-yl)-4-((3-fluoro-5-(2H-1,2,3-triazol-2-yl)pyridin-2-yl)methyl)piperazine-2,3-dione]: the EC50 was 23 nM.

Consider `O=C1C(=O)N(C23CC(C2)C3)CCN1Cc1ccc(-n2nccn2)cc1` [Example 406, 1-(4-(2H-1,2,3-triazol-2-yl)benzyl)-4-(bicyclo[1.1.1]pentan-1-yl)piperazine-2,3-dione], for which the EC50 stood at 15 nM.

In the case of `O=C1C(=O)N(C23CC(C2)C3)CCN1Cc1ccc(-n2nccn2)cc1F` [Example 407, 1-(bicyclo[1.1.1]pentan-1-yl)-4-(2-fluoro-4-(2H-1,2,3-triazol-2-yl)benzyl)piperazine-2,3-dione], the EC50 was determined as 27 nM.

Take `O=c1c(=O)n([C@H]2C[C@H]3C[C@H]3C2)ccn1Cc1ccc(-n2nccn2)cn1` [Example 408, 1-((5-(2H-1,2,3-triazol-2-yl)pyridin-2-yl)methyl)-4-((cis)-bicyclo[3.1.0]hexan-3-yl)-1,4-dihydropyrazine-2,3-dione]: the EC50 turned out to be 8 nM.

For the molecule `O=c1c(=O)n(C2CCC2)ccn1Cc1ccc(-n2nccn2)nc1` [Example 409, 1-((6-(2H-1,2,3-triazol-2-yl)pyridin-3-yl)methyl)-4-cyclobutyl-1,4-dihydropyrazine-2,3-dione], the EC50 worked out at 9 nM.

Take `O=c1c(=O)n(C2CCC2)ccn1Cc1ccc(-n2ccnn2)nc1` [Example 410, 1-((6-(1H-1,2,3-triazol-1-yl)pyridin-3-yl)methyl)-4-cyclobutyl-1,4-dihydropyrazine-2,3-dione]: the EC50 came to 5 nM.

As for `O=c1c(=O)n(C23CC(C2)C3)ccn1Cc1ccc(-n2ccnn2)nc1` [Example 411, 1-((6-(1H-1,2,3-triazol-1-yl)pyridin-3-yl)methyl)-4-(bicyclo[1.1.1]pentan-1-yl)-1,4-dihydropyrazine-2,3-dione], the concentration for a half-maximal effect (EC50) was determined as 7 nM.

As to `O=c1c(=O)n(C23CC(C2)C3)ccn1Cc1ccc(-n2nccn2)nc1` [Example 412, 1-((6-(2H-1,2,3-triazol-2-yl)pyridin-3-yl)methyl)-4-(bicyclo[1.1.1]pentan-1-yl)-1,4-dihydropyrazine-2,3-dione], the EC50 stood at 19 nM.

In the case of `N#CC1(n2ccn(Cc3ccc(-n4nccn4)cn3)c(=O)c2=O)CC1` [Example 413, 1-(4-((5-(2H-1,2,3-triazol-2-yl)pyridin-2-yl)methyl)-2,3-dioxo-3,4-dihydropyrazin-1(2H)-yl)cyclopropane-1-carbonitrile], the concentration giving a half-maximal response (EC50) worked out at 66 nM.

With `CC1(n2ccn(Cc3ccc(-n4ccnn4)nc3)c(=O)c2=O)CC1` [Example 414, 1-((6-(1H-1,2,3-triazol-1-yl)pyridin-3-yl)methyl)-4-(1-methylcyclopropyl)-1,4-dihydropyrazine-2,3-dione], the EC50 was 15 nM.

Turning to `CC1(n2ccn(Cc3ccc(-n4nccn4)nc3)c(=O)c2=O)CC1` [Example 415, 1-((6-(2H-1,2,3-triazol-2-yl)pyridin-3-yl)methyl)-4-(1-methylcyclopropyl)-1,4-dihydropyrazine-2,3-dione], the EC50 turned out to be 138 nM.
